# How the values were obtained:
# Type in all cases: in vivo
# Conditions in all cases: 21 days after treatment
# [1] = test system: Ipomea purpurea (PHBPU); assay: Pre-emergence test, Ipomea purpurea
# Description: (§1) The herbicidal action to be expected, We, for a given combination of two herbicides can be calculated as follows (see COLBY, S. R. “Calculating synergistic and antagonistic response of herbicide combinations”. Weeds 15, pages 20-22; 1967): We=X+[Y·(100−X)/100] wherein: X=% herbicidal action in the case of treatment with active ingredient (A) using an application rate of p kg per hectare, in comparison with untreated control (=0%). Y=% herbicidal action in the case of treatment with active ingredient (B) using an application rate of q kg per hectare, in comparison with untreated control. We=expected herbicidal action (% herbicidal action in comparison with untreated control) after treatment with active ingredient (A) and active ingredient (B) at a rate of application of p+q kg of active ingredient per hectare. If the action actually observed is greater than the expected value We, there is a synergistic effect. Trial Description, Pre-Emergence Test: Monocotyledonous and dicotyledonous test plants are sown in standard soil in plastics pots. The plants tested were: Maize (ZEAMX), Ipomea purpurea (PHBPU), Euphorbia heterophylla (EPHHL), Panicum millenacearum (PANMI). Immediately after sowing, the test compounds in aqueous suspension are applied by spraying (200 litres of water/ha). (A) was formulated as a SC50, and (B1), (B2) and (B3) were formulated as WP25; 1% adjuvant crop oil concentrate (Agridex) (v/v) was added to all treatments. The compounds were applied alone and in combination as tank mixtures. The rates of application depend on the optimum concentrations determined under field conditions and greenhouse conditions. The test plants are then cultivated in a greenhouse under optimum conditions. Evaluation of the tests is made after 21 days (% action, 100%=plants have died, 0%=no phytotoxic action).
# [2] = test system: Maize (ZEAMX); assay: Pre-emergence test, Maize
# Description: as §1
# [3] = test system: Panicum millenacearum (PANMI); assay: Pre-emergence test, Panicum millenacearum
# Description: as §1
# [4] = test system: Euphorbia heterophylla (EPHHL); assay: Pre-emergence test, Euphorbia heterophylla
# Description: as §1
# [5] = test system: Euphorbia heterophylla (EPHHL); assay: Post-emergence test, Euphorbia heterophylla
# Description: as §1
# (§2) Trial Description Post-Emergence Test: The test plants are raised in plastics pots under greenhouse conditions as far as the 2- to 3-leaf stage. A standard soil is used as the cultivation substrate. The plants tested were: Maize (ZEAMX), Ipomea purpurea (PHBPU), Sorghum vulgare (SORVU), Euphorbia heterophylla (EPHHL), Panicum millenacearum (PANMI). At the 2- to 3-leaf stage, the herbicides are applied individually and as mixtures to the test plants. The test compounds are applied in the form of an aqueous suspension in 200 litres of water/ha. (A) was formulated as a SC50, and (B1), (B2) and (B3) were formulated as WP25; 1% adjuvant crop oil concentrate (Agridex) (v/v) was added to all treatments. The compounds were applied alone and in combination as tank mixtures. The rates of application depend on the optimum concentrations determined under field conditions and greenhouse conditions. Evaluation of the tests is made after 21 days (% action, 100%=plants have died, 0%=no phytotoxic action).
# [6] = test system: Maize (ZEAMX); assay: Post-emergence test, Maize
# Description: as §1, §2
# [7] = test system: Sorghum vulgare (SORVU); assay: Post-emergence test, Sorghum vulgare
# Description: as §1, §2
# [8] = test system: Ipomea purpurea (PHBPU); assay: Post-emergence test, Ipomea purpurea
# Description: as §1, §2
# [9] = test system: Panicum millenacearum (PANMI); assay: Post-emergence test, Panicum millenacearum
# Description: as §1, §2
compound,measurement,setting,value
"Cn1nc(C(F)(F)F)c(CS(=O)(=O)C2=NOC(C)(C)C2)c1OC(F)F [(A), 3-[[[5-(difluoromethoxy)-1-methyl-3-(trifluoromethyl)-1H-pyrazol-4-yl]methyl]-sulfonyl]-4,5-dihydro-5,5-dimethyl-isoxazole]",Observed plant damage PHBPU,[1]; rate 12.5 g/ha,0%
same,Observed plant damage PHBPU,[1]; rate 25 g/ha,0%
same,Observed plant damage PHBPU,[1]; rate 50 g/ha,0%
same,Observed plant damage PHBPU,[1]; rate 100 g/ha,75%
same,Observed plant damage PHBPU,[1]; rate 200 g/ha,95%
same,Observed plant damage ZEAMX,[2]; rate 12.5 g/ha,0%
same,Observed plant damage ZEAMX,[2]; rate 25 g/ha,0%
same,Observed plant damage ZEAMX,[2]; rate 50 g/ha,0%
same,Observed plant damage ZEAMX,[2]; rate 100 g/ha,0%
same,Observed plant damage ZEAMX,[2]; rate 200 g/ha,0%
same,Observed plant damage PANMI,[3]; rate 12.5 g/ha,0%
same,Observed plant damage PANMI,[3]; rate 25 g/ha,0%
same,Observed plant damage PANMI,[3]; rate 50 g/ha,70%
same,Observed plant damage PANMI,[3]; rate 100 g/ha,100%
same,Observed plant damage PANMI,[3]; rate 200 g/ha,100%
same,Observed plant damage EPHHL,[4]; rate 12.5 g/ha,0%
same,Observed plant damage EPHHL,[4]; rate 25 g/ha,0%
same,Observed plant damage EPHHL,[4]; rate 50 g/ha,15%
same,Observed plant damage EPHHL,[4]; rate 100 g/ha,40%
same,Observed plant damage EPHHL,[4]; rate 200 g/ha,75%
same,Observed plant damage EPHHL,[5]; rate 12.5 g/ha,0%
same,Observed plant damage EPHHL,[5]; rate 25 g/ha,0%
same,Observed plant damage EPHHL,[5]; rate 50 g/ha,15%
same,Observed plant damage EPHHL,[5]; rate 100 g/ha,35%
same,Observed plant damage EPHHL,[5]; rate 200 g/ha,40%
same,Observed plant damage ZEAMX,[6]; rate 12.5 g/ha,0%
same,Observed plant damage ZEAMX,[6]; rate 25 g/ha,0%
same,Observed plant damage ZEAMX,[6]; rate 50 g/ha,0%
same,Observed plant damage ZEAMX,[6]; rate 100 g/ha,0%
same,Observed plant damage ZEAMX,[6]; rate 200 g/ha,0%
same,Observed plant damage SORVU,[7]; rate 12.5 g/ha,0%
same,Observed plant damage SORVU,[7]; rate 25 g/ha,0%
same,Observed plant damage SORVU,[7]; rate 50 g/ha,0%
same,Observed plant damage SORVU,[7]; rate 100 g/ha,0%
same,Observed plant damage SORVU,[7]; rate 200 g/ha,0%
same,Observed plant damage PHBPU,[8]; rate 12.5 g/ha,0%
same,Observed plant damage PHBPU,[8]; rate 25 g/ha,20%
same,Observed plant damage PHBPU,[8]; rate 50 g/ha,20%
same,Observed plant damage PHBPU,[8]; rate 100 g/ha,75%
same,Observed plant damage PHBPU,[8]; rate 200 g/ha,85%
same,Observed plant damage PANMI,[9]; rate 12.5 g/ha,0%
same,Observed plant damage PANMI,[9]; rate 25 g/ha,35%
same,Observed plant damage PANMI,[9]; rate 50 g/ha,65%
same,Observed plant damage PANMI,[9]; rate 100 g/ha,65%
same,Observed plant damage PANMI,[9]; rate 200 g/ha,75%
"COCCOCc1nc(C(F)(F)F)ccc1C(=O)C1C(=O)C2CCC(C2)C1=O (stereo not drawn) [(B1), 4-hydroxy-3-[[2-[(2-methoxyethoxy)methyl]-6-(trifluoromethyl)-3-pyridinyl]carbonyl]-bicyclo[3.2.1]oct-3-en-2-one]",Observed plant damage PHBPU,[1]; rate 18.75 g/ha,0%
same,Observed plant damage PHBPU,[1]; rate 37.5 g/ha,0%
same,Observed plant damage PHBPU,[1]; rate 75 g/ha,0%
same,Observed plant damage PHBPU,[1]; rate 150 g/ha,0%
same,Observed plant damage PHBPU,[1]; rate 300 g/ha,85%
same,Observed plant damage ZEAMX,[2]; rate 18.75 g/ha,0%
same,Observed plant damage ZEAMX,[2]; rate 37.5 g/ha,0%
same,Observed plant damage ZEAMX,[2]; rate 75 g/ha,0%
same,Observed plant damage ZEAMX,[2]; rate 150 g/ha,0%
same,Observed plant damage ZEAMX,[2]; rate 300 g/ha,0%
same,Observed plant damage PANMI,[3]; rate 18.75 g/ha,15%
same,Observed plant damage PANMI,[3]; rate 37.5 g/ha,65%
same,Observed plant damage PANMI,[3]; rate 75 g/ha,80%
same,Observed plant damage PANMI,[3]; rate 150 g/ha,100%
same,Observed plant damage PANMI,[3]; rate 300 g/ha,100%
same,Observed plant damage EPHHL,[4]; rate 18.75 g/ha,0%
same,Observed plant damage EPHHL,[4]; rate 37.5 g/ha,0%
same,Observed plant damage EPHHL,[4]; rate 75 g/ha,75%
same,Observed plant damage EPHHL,[4]; rate 150 g/ha,75%
same,Observed plant damage EPHHL,[4]; rate 300 g/ha,100%
same,Observed plant damage EPHHL,[5]; rate 18.75 g/ha,65%
same,Observed plant damage EPHHL,[5]; rate 37.5 g/ha,80%
same,Observed plant damage EPHHL,[5]; rate 75 g/ha,90%
same,Observed plant damage EPHHL,[5]; rate 150 g/ha,90%
same,Observed plant damage EPHHL,[5]; rate 300 g/ha,98%
same,Observed plant damage ZEAMX,[6]; rate 18.75 g/ha,0%
same,Observed plant damage ZEAMX,[6]; rate 37.5 g/ha,0%
same,Observed plant damage ZEAMX,[6]; rate 75 g/ha,0%
same,Observed plant damage ZEAMX,[6]; rate 150 g/ha,0%
same,Observed plant damage ZEAMX,[6]; rate 300 g/ha,0%
same,Observed plant damage SORVU,[7]; rate 18.75 g/ha,0%
same,Observed plant damage SORVU,[7]; rate 37.5 g/ha,0%
same,Observed plant damage SORVU,[7]; rate 75 g/ha,0%
same,Observed plant damage SORVU,[7]; rate 150 g/ha,10%
same,Observed plant damage SORVU,[7]; rate 300 g/ha,35%
same,Observed plant damage PHBPU,[8]; rate 18.75 g/ha,30%
same,Observed plant damage PHBPU,[8]; rate 37.5 g/ha,50%
same,Observed plant damage PHBPU,[8]; rate 75 g/ha,55%
same,Observed plant damage PHBPU,[8]; rate 150 g/ha,70%
same,Observed plant damage PHBPU,[8]; rate 300 g/ha,70%
same,Observed plant damage PANMI,[9]; rate 18.75 g/ha,60%
same,Observed plant damage PANMI,[9]; rate 37.5 g/ha,70%
same,Observed plant damage PANMI,[9]; rate 75 g/ha,75%
same,Observed plant damage PANMI,[9]; rate 150 g/ha,70%
same,Observed plant damage PANMI,[9]; rate 300 g/ha,90%
